Measurements published in US6894061B2, “Substituted dihydrophenanthridinesulfonamides” (Wyeth, priority 2002, dated 2005).
Like-named read-outs stand apart in the source and are kept apart here.

Tests used:
creatine kinase = assay: Creatine kinase (CK) test procedure in Ad5-wt-ERα infected HAECT-1 cells; type: cell-based, human; details: Ad5-wt-ERα infected HAECT-1 cells; for Emax at 10 µM / Creatin Kinase Efficacy (%): @10 μM
Method: (§1) After four hours, cells were washed with EBM-BSA and incubated overnight in the same medium. Following overnight incubation, cells were washed with EBM-BSA and infected for 2 hours with 6 mL of a 1:10 dilution of Ad5-3x(NFκB).Luc virus (Adenovirus luciferase expression vector driven by 3 repeats of the MHC NFκb site 5′ to the thymidine kinase promoter) in EBM-BSA. After two hours, cells were washed and incubated at 34° C. for 1 hour. […] Control (no ER infection) cells were processed as above without Ad5-wt-hERα virus infection.
(§2) ERα infected HAECT-1 cells or control cells were thawed, diluted 42× in warm EBM-BSA, plated into 96-well plates at 0.1 mL/well and incubated for 4 hours at 34° C. Test compounds were added to the cells as 2× stocks in EBM-BSA containing 2 ng/mL IL-1β (R&D Systems) and the 96-well plates were returned to the incubator (34° C.). After 15-20 hours, 100 μL aliquots of media were removed from the cells and assayed for IL-6 content using a BioSource human IL-6 ELISA Kit. Cells were subsequently washed with 300 μL of Dulbecco's phosphate buffered saline and lysed in 50 μL of Cell Culture Lysis Reagent (Promega). Luciferase was determined on a Wallac Victor^2 Luminometer (Gaithersburg, Md.) using 10 μL of lysate and mixing with 100 μL of Promega Luciferase Assay reagent. Creatine kinase was determined from the rate of increase in A340 following addition of 100 μL of CK assay reagent (Sigma, cat. No 47-10) to the remainder of the cell lysate.
(§3) For IC50 and EC50 calculations, mean IL-6, luciferase or CK values versus log10 of the compound concentration were fitted to a four parameter logistic equation. The IC50/EC50 value, ‘Hill slope’, upper and lower limits of the curve were iteratively estimated.

ER/NF-κB = ER/NF-κB luciferase reporter in Ad5-wt-ERα infected HAECT-1 cells; type: cell-based, human; details: for Emax: read-out: ER/NFκB Efficacy (%)*; for IC50: read-out: ER/NFκB IC50
Method: as §1, §2, §3

[1] = Homo sapiens, HAECT1, read-out: Creatin Kinase Efficacy (%)

| Compound | Emax at 10 µM (creatine kinase; [1]) [%] | Emax (ER/NF-κB; Homo sapiens, HAECT1, IL-1β) [%] | IC50 (ER/NF-κB; Homo sapiens, HAECT1, IL-1β) [µM] | other results |
| --- | --- | --- | --- | --- |
| CC1c2cc(F)ccc2-c2ccccc2N1S(=O)(=O)c1cccc(O)c1 (centres unmarked) [Example 48, 3-[(8-fluoro-6-methylphenanthridin-5(6H)-yl)sulfonyl]phenol] | < 35 | 107 | 0.525 | melting point: 161 °C |
| CCC1c2ccccc2-c2cc(-c3ccccc3O)ccc2N1S(=O)(=O)c1ccc(O)cc1 (centres unmarked) [Example 63, 2-{6-Ethyl-5-[(4-hydroxyphnyl)sulfonyl]-5,6-dihydrphnanthridin-2-yl}ph nol] | – | – | – | Creatin Kinase Efficacy (%) (creatine kinase): <35% @10 μM; ER/NFκB Efficacy (%)* (ER/NF-κB; IL-1β): 89%; IC50 (ER/NF-κB; IL-1β): 0.335 µM |
| CCC1c2ccccc2-c2cc(-c3ccsc3)ccc2N1S(=O)(=O)c1ccc(O)c(C)c1 (centres unmarked) [Example 79, 4-[(6-Ethyl-2-thien-3-ylphenanthridin-5(6H)-yl)sulfonyl]-2-methylphenol] | < 35 | 86 | 0.226 | – |
| CCC1c2ccccc2-c2ccccc2N1S(=O)(=O)c1ccc(O)c(C)c1 (centres unmarked) [Example 20, 4-[(6-Ethylphenanthridin-5(6H)-yl)sulfonyl]-2-methylphenol] | < 35 | – | > 10 | – |
| CCC1c2ccccc2-c2cc(-c3ccccc3C)ccc2N1S(=O)(=O)c1ccc(O)cc1 (centres unmarked) [Example 70, 4-{[6-Ethyl-2-(2-mthylphnyl)phenanthridin-5(6H)-yl]sulfonyl}phenol] | – | – | – | Creatin Kinase Efficacy (%) (creatine kinase): <35% @10 μM; ER/NFκB Efficacy (%)* (ER/NF-κB; IL-1β): 90%; IC50 (ER/NF-κB; IL-1β): 0.463 µM |
| CCC1c2ccccc2-c2cc(-c3ccsc3)ccc2N1S(=O)(=O)c1ccc(O)cc1 (centres unmarked) [Example 28, 4-[(6-Ethyl-2-thin-3-ylphnanthridin-5(6H)-yl)sulfonyl]phenol] | – | – | – | Creatin Kinase Efficacy (%) (creatine kinase): <35% @10 μM; ER/NFκB Efficacy (%)* (ER/NF-κB; IL-1β): 98%; IC50 (ER/NF-κB; IL-1β): 0.076 µM |
| CCC1c2ccccc2-c2cc(-c3ccc(O)cc3)ccc2N1S(=O)(=O)c1ccc(O)cc1 (centres unmarked) [Example 73, 4-{[6-Ethyl-2-(4-hydroxyphenyl)phenanthridin-5(6H)-yl]sulfonyl}phenol] | < 35 | 56 | 0.052 | – |
| CCC1c2ccccc2-c2cc(-c3cc4ccccc4s3)ccc2N1S(=O)(=O)c1ccc(O)c(C)c1 (centres unmarked) [Example 90, 4-{[2-(1-Benzothien-2-yl)-6-ethylphenanthridin-5(6H)-yl]sulfonyl}-2-methylphenol] | < 35 | 108 | 2.55 | – |
| CCC1c2ccccc2-c2cc(Br)ccc2N1S(=O)(=O)c1ccc(O)c(C)c1 (centres unmarked) [Example 21, 4-[(2-Bromo-6-ethylphenanthridin-5(6H)-yl)sulfonyl]-2-methylphenol] | < 35 | 85 | 0.831 | – |
| CCC1c2cc(F)ccc2-c2cc(-c3ccsc3)ccc2N1S(=O)(=O)c1ccc(O)cc1 (centres unmarked) [Example 52, 4-[(6-Ethyl-8-fluoro-2-thien-3-ylphenanthridin-5(6H)-yl)sulfonyl]phenol] | < 35 | 95 | 0.068 | – |
| CCC1c2ccccc2-c2cc(-c3ccc(O)cc3)ccc2N1S(=O)(=O)c1ccc(O)c(C)c1 (centres unmarked) [Example 94, 4-{[6-Ethyl-2-(4-hydroxyphnyl)phenanthridin-5(6H)-yl]sulfnyl}-2-methylph nl] | – | – | – | Creatin Kinase Efficacy (%) (creatine kinase): <35% @10 μM; ER/NFκB Efficacy (%)* (ER/NF-κB; IL-1β): 105%; IC50 (ER/NF-κB; IL-1β): 0.382 µM |
| CC1c2ccccc2-c2ccccc2N1S(=O)(=O)c1ccc(O)c(C(=O)O)c1 (centres unmarked) [Example 24, 2-Hydroxy-5-[(6-methylphenanthridin-5(6H)-yl)sulfonyl]benzoic acid] | – | – | – | melting point: 225 to 230 °C |
| CCOC(=O)c1cc(S(=O)(=O)N2c3ccccc3-c3ccccc3C2C)ccc1OCC (centres unmarked) [Example 25, Ethyl 2-ethoxy-5-[(6-methylphenanthridin-5(6H)-yl)sulfonyl]benzoate] | – | – | – | melting point: 113 to 115 °C |
| CCC1c2ccccc2-c2cc(-c3cccc(Cl)c3)ccc2N1S(=O)(=O)c1ccc(O)cc1 (centres unmarked) [Example 67, 4-{[2-(3-Chlorophenyl)-6-ethylphenanthridin-5(6H)-yl]sulfonyl}phenol] | < 35 | 79 | 0.245 | – |
| CCC1c2ccccc2-c2cc(/C=C/c3ccccc3)ccc2N1S(=O)(=O)c1ccc(O)cc1 (centres unmarked) [Example 65, 4-{[6-Ethyl-2-[(E)-2-phenylethenyl]phenanthridin-5(6H)-yl]sulfonyl}phenol] | < 35 | 93 | 0.241 | – |
| CCC1c2ccccc2-c2cc(-c3ccccc3)ccc2N1S(=O)(=O)c1ccc(O)cc1 (centres unmarked) [Example 69, 4-[(6-Ethyl-2-phnylphenanthridin-5(6H)-yl)sulfonyl]phenol] | – | – | – | Creatin Kinase Efficacy (%) (creatine kinase): <35% @10 μM; ER/NFκB Efficacy (%)* (ER/NF-κB; IL-1β): 90%; IC50 (ER/NF-κB; IL-1β): 0.235 µM |
| CCC1c2cc(F)ccc2-c2cc(-c3cccnc3)ccc2N1S(=O)(=O)c1ccc(O)cc1 (centres unmarked) [Example 127, 4-[(6-Ethyl-8-fluoro-2-pyridin-3-ylphenanthridin-5(6H)-yl)sulfonyl]phenol] | – | – | – | melting point: 195 to 200 °C |
| CCC1c2ccccc2-c2cc(-c3cccc(OC)c3)ccc2N1S(=O)(=O)c1ccc(O)cc1 (centres unmarked) [Example 29, 4-{[6-Ethyl-2-(3-methoxyphenyl)phenanthridin-5(6H)-yl]sulfonyl}phenol] | < 35 | 86 | 0.234 | – |
| CCC1c2ccccc2-c2cc(-c3ccc(C(C)=O)s3)ccc2N1S(=O)(=O)c1ccc(O)cc1 (centres unmarked) [Example 76, 1-(5-{6-Ethyl-5-[(4-hydroxyphnyl)sulfonyl]-5,6-dihydrophnanthridin-2-yl}thin-2-yl)ethanone] | – | – | – | Creatin Kinase Efficacy (%) (creatine kinase): <35% @10 μM; ER/NFκB Efficacy (%)* (ER/NF-κB; IL-1β): 67%; IC50 (ER/NF-κB; IL-1β): 1.18 µM |
| CCC1c2ccccc2-c2cc(-c3ccccc3Cl)ccc2N1S(=O)(=O)c1ccc(O)c(C)c1 (centres unmarked) [Example 95, 4-{[2-(2-Chlorophenyl)-6-ethylphenanthridin-5(6H)-yl]sulfonyl}-2-methylphenol] | < 35 | 89 | 0.678 | – |
| CCC1c2ccccc2-c2cc(-c3cccc(O)c3)ccc2N1S(=O)(=O)c1ccc(O)c(C)c1 (centres unmarked) [Example 84, 4-{[6-Ethyl-2-(3-hydroxyphenyl)phenanthridin-5(6H)-yl]sulfonyl}-2-methylphenol] | < 35 | 80 | 0.447 | – |
| CCC1c2ccccc2-c2cc(-c3ccccc3O)ccc2N1S(=O)(=O)c1ccc(O)c(C)c1 (centres unmarked) [Example 78, 4-{[6-Ethyl-2-(2-hydroxyphenyl)phenanthridin-5(6H)-yl]sulfonyl}-2-methylphenol] | < 35 | 79 | 0.771 | – |
| CCc1ccc(-c2ccc3c(c2)-c2ccccc2C(CC)N3S(=O)(=O)c2ccc(O)cc2)cc1 (centres unmarked) [Example 75, 4-{[6-Ethyl-2-(4-ethylphenyl)phenanthridin-5(6H)-yl]sulfonyl}phenol] | < 35 | 116 | 3.93 | – |
| CC1c2cc(Cl)ccc2-c2ccccc2N1S(=O)(=O)c1ccc(O)cc1 (centres unmarked) [Example 61, 4-[(8-Chloro-6-methylphenanthridin-5(6H)-yl)sulfonyl]phenol] | – | – | – | melting point: 176 to 178 °C |
| CC1c2c(O)cccc2-c2ccccc2N1S(=O)(=O)c1ccc(O)cc1 (centres unmarked) [Example 39, 5-[(4-Hydroxyphenyl)sulfonyl]-6-methyl-5,6-dihydrophenanthridin-7-ol] | < 35 | – | > 10 | – |
| CCC1c2ccccc2-c2ccccc2N1S(=O)(=O)c1ccc(O)cc1 (centres unmarked) [Example 18, 4-[(6-Ethylphenanthridin-5(6H)-yl)sulfonyl]phenol] | < 35 | 76 | 0.529 | – |
| CCC1c2ccccc2-c2cc(-c3ccccc3Cl)ccc2N1S(=O)(=O)c1ccc(O)cc1 (centres unmarked) [Example 74, 4-{[2-(2-Chlorophenyl)-6-ethylphenanthridin-5(6H)-yl]sulfonyl}phenol] | < 35 | 96 | 0.434 | – |
| CC1c2ccccc2-c2ccccc2N1S(=O)(=O)c1ccc(O)c(C=O)c1 (centres unmarked) [Example 27, 2-Hydroxy-5-[(6-methylphenanthridin-5(6H)-yl)sulfonyl]b nzald hyde] | – | – | – | Creatin Kinase Efficacy (%) (creatine kinase): <35% @10 μM; IC50 (ER/NF-κB; IL-1β): > 10 µM |
| CCC1c2ccccc2-c2cc(Br)ccc2N1S(=O)(=O)c1ccc(O)cc1 (centres unmarked) [Example 19, 4-[(2-Bromo-6-ethylphenanthridin-5(6H)-yl)sulfonyl]phenol] | < 35 | 80 | 0.186 | – |
| CCC1c2cc(F)ccc2-c2ccccc2N1S(=O)(=O)c1ccc(OC(=O)c2ccccc2)cc1 (centres unmarked) [Example 55, 4-[(6-Ethyl-8-fluorophenanthridin-5(6H)-yl)sulfonyl]phenyl benzoate] | – | – | > 10 | EC50 (creatine kinase; Homo sapiens, HAECT1, read-out: Creatin Kinase EC50): 0.239 µM; Emax (creatine kinase; [1]): 32% |
